These results are taken from ChEMBL document CHEMBL1201862, “PubChem BioAssay data set” (2004).

Molecules are shown by their SMILES. The source made the active and inactive calls.

In test [1] the test system is HepG2. Nature of the test: HepG2 Cytotoxicity Assay Measured in Cell-Based System Using Plate Reader - 7071-02_Inhibitor_Dose_CherryPick_Activity. It counts as functional. The note with it: Homo sapiens.
Test [2] in a line: HEK293 Cytotoxicity Assay Measured in Cell-Based System Using Plate Reader - 7071-01_Inhibitor_Dose_CherryPick_Activity_Set2. It counts as functional.
In test [3] the test system is HEK293. In words: HEK293T cell cytotoxicity, dose response, cytotoxicity control, ATP luminescence, cherry-pick samples (AID 687005).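 Note: cells exposed to compound for 48 hours.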 It counts as functional, cell-based. The following applies: Homo sapiens.
Test [4] addresses T1, High affinity choline transporter 1 (Homo sapiens, UniProt Q9GZV3).
T1 sequence (Q9GZV3 whole entry): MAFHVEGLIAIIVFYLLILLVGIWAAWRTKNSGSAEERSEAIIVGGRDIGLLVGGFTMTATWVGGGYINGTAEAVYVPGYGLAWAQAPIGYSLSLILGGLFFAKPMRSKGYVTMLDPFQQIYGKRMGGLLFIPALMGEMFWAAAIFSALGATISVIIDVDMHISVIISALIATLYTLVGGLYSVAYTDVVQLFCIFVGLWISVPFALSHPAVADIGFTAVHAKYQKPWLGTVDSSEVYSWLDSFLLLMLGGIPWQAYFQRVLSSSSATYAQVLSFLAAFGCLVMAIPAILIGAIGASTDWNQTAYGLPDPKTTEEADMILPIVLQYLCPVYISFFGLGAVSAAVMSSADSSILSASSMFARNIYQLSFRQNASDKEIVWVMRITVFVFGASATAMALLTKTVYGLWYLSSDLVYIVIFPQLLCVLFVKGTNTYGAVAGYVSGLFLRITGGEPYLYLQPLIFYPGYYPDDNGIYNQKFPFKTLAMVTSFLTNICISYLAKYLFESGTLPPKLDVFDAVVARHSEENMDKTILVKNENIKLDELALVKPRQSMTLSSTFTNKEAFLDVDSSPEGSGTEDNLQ
In words: CHT choline uptake inhibitors, dose response, cell-based, HEK-293 hCHT, [3H]-choline uptake (AID 652177). Type of test: functional.

Test [5] has as its target Potassium channel subfamily K member 9 (Homo sapiens, UniProt Q9NPC2). Nature of the test: TASK3 (KCNK9) channel inhibitors, thallium flux, SAR follow-up, selectivity assay for TASK1 inhibitor project, cell-based, FluxOR thallium flux, concentration-response (AID 652211).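 Note: potency is for inhibitors of the channel.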 It counts as functional.
Test [6] deals with NS3 (Hepatitis C virus, UniProt A3EZJ3). In words: HCV NS3 helicase inhibitor potency, dose response, biochemical, fluorescence polarization, ChemBridge library (AID 743264). (Polarisation of emitted light reports the rotation of a fluorescent probe.)
NS3, sequence (A3EZJ3 whole entry): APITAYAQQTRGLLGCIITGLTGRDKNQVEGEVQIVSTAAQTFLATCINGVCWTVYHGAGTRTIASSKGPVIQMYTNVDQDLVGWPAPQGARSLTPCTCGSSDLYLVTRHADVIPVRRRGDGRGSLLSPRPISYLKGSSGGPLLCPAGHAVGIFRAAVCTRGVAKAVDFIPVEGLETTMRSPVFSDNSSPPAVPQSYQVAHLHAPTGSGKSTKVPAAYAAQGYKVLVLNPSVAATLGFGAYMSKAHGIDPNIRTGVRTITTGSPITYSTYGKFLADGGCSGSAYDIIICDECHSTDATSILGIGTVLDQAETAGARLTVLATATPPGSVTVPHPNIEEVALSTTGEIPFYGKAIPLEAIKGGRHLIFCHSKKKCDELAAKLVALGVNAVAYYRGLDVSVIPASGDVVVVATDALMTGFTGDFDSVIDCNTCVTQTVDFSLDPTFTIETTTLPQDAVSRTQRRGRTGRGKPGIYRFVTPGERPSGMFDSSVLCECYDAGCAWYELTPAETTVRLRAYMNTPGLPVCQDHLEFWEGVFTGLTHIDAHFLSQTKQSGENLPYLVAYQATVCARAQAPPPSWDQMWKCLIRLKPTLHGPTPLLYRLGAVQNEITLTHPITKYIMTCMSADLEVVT
Test [7] in a line: HepG2 cell cytotoxicity, dose response, cytotoxicity control, ATP luminescence, cherry-pick, activator set 2 (AID 1053143). Type of test: functional, cell-based.
The nature of test [8]: lymphoblastoid cell cytotoxicity, dose response, cytotoxicity control, plate reader, dry powder, set 2 (AID 624367). It counts as functional.
Test [9] in a line: HEK293 cell viability, dose response, counter-screen for EBV LMP1 inhibitor project, dry powder, set 2 (AID 624374). Type of test: functional. (The purpose of a counterscreen is to sort out artefacts and off-target activity.)
Test [10] in a line: P. falciparum Dd2 growth inhibitors, dose response, SYBR Green, dry powder samples, set 9 (AID 1159568). It counts as functional, cell-based.
The subject of test [11] is Vero. In words: cells. Type of test: functional. The following applies: Chlorocebus sabaeus.
In test [12] the test system is BHK-21. Nature of the test: BHK-21 cell toxicity, dose response, cytotoxicity control, plate reader, cherry-pick samples (AID 687030). It counts as functional, cell-based. The note with it: Mesocricetus auratus.
Test [13] addresses T2, Hexokinase HKDC1 (Homo sapiens, UniProt Q2TB90).
T2 sequence (Q2TB90 whole entry): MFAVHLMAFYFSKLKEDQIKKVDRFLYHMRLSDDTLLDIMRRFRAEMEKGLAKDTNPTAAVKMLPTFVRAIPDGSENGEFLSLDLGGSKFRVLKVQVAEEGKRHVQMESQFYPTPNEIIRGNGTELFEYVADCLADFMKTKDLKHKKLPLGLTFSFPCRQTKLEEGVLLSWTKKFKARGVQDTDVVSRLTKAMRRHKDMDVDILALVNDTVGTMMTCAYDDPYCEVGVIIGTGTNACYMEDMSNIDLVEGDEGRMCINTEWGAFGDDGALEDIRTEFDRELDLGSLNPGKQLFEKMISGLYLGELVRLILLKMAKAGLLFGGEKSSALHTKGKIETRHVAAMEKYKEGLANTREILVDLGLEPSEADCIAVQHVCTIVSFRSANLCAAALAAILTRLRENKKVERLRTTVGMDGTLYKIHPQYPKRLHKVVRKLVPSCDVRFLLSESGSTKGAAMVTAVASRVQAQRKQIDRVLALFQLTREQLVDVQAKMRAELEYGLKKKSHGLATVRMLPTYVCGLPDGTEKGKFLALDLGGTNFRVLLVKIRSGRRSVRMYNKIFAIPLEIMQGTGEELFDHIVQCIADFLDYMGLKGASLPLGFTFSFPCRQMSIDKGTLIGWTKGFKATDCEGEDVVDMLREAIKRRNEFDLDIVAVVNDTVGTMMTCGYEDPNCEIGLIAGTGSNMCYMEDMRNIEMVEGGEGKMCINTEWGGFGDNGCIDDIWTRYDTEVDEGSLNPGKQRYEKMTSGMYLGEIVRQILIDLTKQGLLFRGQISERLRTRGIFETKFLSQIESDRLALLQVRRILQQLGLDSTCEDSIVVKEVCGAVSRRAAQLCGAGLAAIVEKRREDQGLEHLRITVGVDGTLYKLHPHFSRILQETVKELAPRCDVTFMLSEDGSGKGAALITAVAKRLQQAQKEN
Nature of the test: HKDC1 hexokinase inhibitors, dose response, biochemical, W721R variant (AID 504729). Type of test: functional.

Test [14] addresses Genome polyprotein (dengue virus type 2, UniProt P29990). Nature of the test: Dengue-2 NS5 methyltransferase inhibitors, primary screen, biochemical, confirmation dose response (AID 588689). Type of test: functional.
The target in test [15] is Tyrosyl-DNA phosphodiesterase 2 (Homo sapiens, UniProt O95551). Nature of the test: human TDP2 enzyme inhibitors, dose response, biochemical, epi absorbance, IC50 (AID 743297).
Tyrosyl-DNA phosphodiesterase 2, sequence (O95551 whole entry): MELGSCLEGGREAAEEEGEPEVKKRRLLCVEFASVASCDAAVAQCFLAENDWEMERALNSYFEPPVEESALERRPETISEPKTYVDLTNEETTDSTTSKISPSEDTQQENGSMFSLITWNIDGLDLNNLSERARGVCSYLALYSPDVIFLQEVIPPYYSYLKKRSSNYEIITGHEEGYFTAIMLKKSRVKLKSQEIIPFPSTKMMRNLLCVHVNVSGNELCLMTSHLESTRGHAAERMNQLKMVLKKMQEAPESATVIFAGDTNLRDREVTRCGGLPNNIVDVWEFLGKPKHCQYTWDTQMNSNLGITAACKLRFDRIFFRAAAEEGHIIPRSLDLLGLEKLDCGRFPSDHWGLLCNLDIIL

Potassium channel subfamily K member 9, sequence (Q9NPC2 whole entry): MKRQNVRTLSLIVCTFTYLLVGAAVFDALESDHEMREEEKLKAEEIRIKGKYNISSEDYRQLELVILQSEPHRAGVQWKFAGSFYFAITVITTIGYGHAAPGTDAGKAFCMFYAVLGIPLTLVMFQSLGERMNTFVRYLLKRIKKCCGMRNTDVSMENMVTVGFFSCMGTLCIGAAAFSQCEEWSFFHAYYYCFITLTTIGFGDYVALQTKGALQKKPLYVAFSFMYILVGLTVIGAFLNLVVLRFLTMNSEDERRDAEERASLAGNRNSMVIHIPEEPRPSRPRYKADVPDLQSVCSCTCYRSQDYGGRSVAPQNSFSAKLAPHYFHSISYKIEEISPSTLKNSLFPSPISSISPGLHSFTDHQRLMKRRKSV
Genome polyprotein, sequence (P29990 2492-3391 limits assumed): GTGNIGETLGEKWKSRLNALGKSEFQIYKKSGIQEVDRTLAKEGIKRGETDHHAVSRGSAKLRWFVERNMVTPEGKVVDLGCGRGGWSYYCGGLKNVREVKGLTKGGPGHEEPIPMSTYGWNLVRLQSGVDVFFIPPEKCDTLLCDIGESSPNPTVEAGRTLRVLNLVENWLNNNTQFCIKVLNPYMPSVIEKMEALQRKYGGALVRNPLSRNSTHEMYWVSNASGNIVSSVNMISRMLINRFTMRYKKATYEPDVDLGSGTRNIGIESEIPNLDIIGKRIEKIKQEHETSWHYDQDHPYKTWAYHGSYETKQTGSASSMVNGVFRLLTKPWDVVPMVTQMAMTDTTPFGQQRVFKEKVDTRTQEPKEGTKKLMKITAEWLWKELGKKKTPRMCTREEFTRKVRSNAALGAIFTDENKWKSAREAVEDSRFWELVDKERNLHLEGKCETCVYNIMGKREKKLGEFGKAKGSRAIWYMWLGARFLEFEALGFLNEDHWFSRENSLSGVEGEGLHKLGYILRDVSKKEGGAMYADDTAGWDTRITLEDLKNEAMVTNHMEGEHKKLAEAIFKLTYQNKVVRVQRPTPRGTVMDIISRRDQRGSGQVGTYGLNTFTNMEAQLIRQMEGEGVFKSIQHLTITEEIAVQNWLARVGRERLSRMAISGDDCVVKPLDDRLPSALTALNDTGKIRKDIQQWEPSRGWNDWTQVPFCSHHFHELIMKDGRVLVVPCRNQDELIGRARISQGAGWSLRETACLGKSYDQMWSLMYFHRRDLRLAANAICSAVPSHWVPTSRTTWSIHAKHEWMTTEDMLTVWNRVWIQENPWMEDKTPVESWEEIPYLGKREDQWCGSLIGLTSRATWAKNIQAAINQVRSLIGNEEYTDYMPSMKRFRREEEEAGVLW

As to `O=C(CC1CC1)N1[C@@H]2CN(S(=O)(=O)c3ccccc3)c3ccccc3[C@@H]2[C@@H]1CO`, the AC50 in test [1] is 19.8 µM (active); in test [2], 28 µM (active); in test [3], 28 µM (active). As for `COc1ccc(C(=O)NCc2cc(C(C)C)no2)cc1OCCN1CCOCC1`, the IC50 in [4] is 6.12 µM (active). In the case of `O=C(Nc1cccc(NC(=O)C2CCCCC2)c1)c1ccccc1`, in [5], the IC50 was 8 µM (active). As for `O=C1NC(=S)N(c2ccccc2)C(=O)/C1=C/c1ccc(-c2ccc(C(=O)O)c(Cl)c2)o1`, the IC50 in test [6] was 96.9 µM (active).

In the case of `O=C(Nc1ncccc1O)c1ccc(Oc2ccccc2)cc1`, the AC50 in [7] is 26 µM (active). For `CC(C)(C)[S@+]([O-])N1Cc2cc(C(=O)NCC(F)(F)F)nc(-c3cccc(-c4cccc(F)c4)c3)c2[C@@H]1CCO`, the AbsAC35 came out at 124.56 µM in test [8] and 111.16 µM in [9]. Moreover, the AC50 in [10] is 6.29 µM (active). On to `CN(C)CCCN1c2ccccc2Sc2ccc3ccccc3c21`, for which, in test [11], the CC50 was 16.2 µM (active). Moreover, the AC50 in test [12] was 36 µM (active).

With `O=S(=O)(Nc1ccc(O)c2ccccc12)c1cccs1`, the values for the IC50 in [13], in test [14] and in [15] were 9.75 µM (active), 62.6 µM (active) and > 128 µM (inactive), respectively.

What is called AC50 is the midpoint of the concentration-response curve, whichever way the signal moves. In general, IC50 refers to the concentration needed to halve the response being measured. Usually CC50 stands for the concentration at which the toxic effect on the cells reaches its halfway point.
